The results in this text go back to patent US9642819B2, “Low dosage serotonin 5-HT2A receptor agonist to suppress inflammation” (BOARD OF SUPERVISORS OF LOUISIANA STATE UNIVERSITY AND …, priority 2008, dated 2017).

For test [1], the system named is VCAM-1 gene expression. The experiment in a line: TNF-α induced VCAM-1 gene expression in rat primary aortic endothelial cells. The format is cell-based. The following applies: 10 pM, 60 minutes prior to TNF-alpha 10 ng/ml. The protocol:
(§1) Experiments were conducted to analyze for the effect of 5-HT2A receptor activation on proinflammatory marker expression in other cell types. Human neuroblastoma cells (SHSY5Y) and rat glioma cells (C6) can be obtained from the American Type Culture Collection (Manassas, Va.), but were provided Purdue University. The cells were grown in DMEM+10% FBS. DMEM was made and provided by the Cell and Molecular Core of the Mentoring in Cardiovascular Biology COBRE center at LSUHSC-NO. FBS was purchased from Invitrogen (Carlsbad, Calif.). Primary rat aortic endothelial cells were prepared fresh and provided by the Cell and Molecular Core of the Mentoring in Cardiovascular Biology COBRE center at LSUHSC-NO. Cells were tested at passages 3-4. Cells were grown in endothelial cell growth medium (Cell Applications, Inc.). Primary rat bronchoaveolar macrophage cells were obtained by lung lavage from rats and used at day 3 or 4 post plating in DMEM+10% FBS.
(§2) All treatments with 5-HT2A receptor agonists occurred 1 hour prior to the addition of TNF-alpha (10 ng/ml) or LPS (100 ng or 1 mg) depending on the experiment. All RNA isolations, cDNA synthesis, QPCR gene expression assays examining ICAM1, VCAM1, and IL6, and data analysis were performed as described above in Example 1, except the primers were different for the human cell experiment. […]

In test [2] the test system is VCAM-1 gene expression. In words: TNF-α induced VCAM-1 gene expression in primary rat bronchoaveolar macrophage cells. The test is classed as cell-based. The protocol:
as §1, §2

Test [3] concerns Nitric Oxide Synthetase (NOS) activity. The experiment in a line: NOS activity: nitrite levels in culture medium of RASM cells after TNF-α. The test is classed as cell-based, rat. The following applies: 1 nM pretreatment for 24 hours, TNF-α 10 ng/ml 24 hours. The protocol: Nitric Oxide Synthetase (NOS) Activity. NOS activity was determined by detection of nitrite levels in the cell culture medium following (R)-DOI/TNF-α treatments utilizing the Nitrate Detection kit from Assay Designs (Ann Arbor, Mich.) following the manufacturers protocols. Absorbances were detected at 539 nm on a […] SpectraMax M2 plate reader.
A key participant in inflammatory processes is NOS activity (Guzik et al., 2003). NOS activity can regulate NF-kB activation (Ckless et al., 2007), and cytokine pathway-activated NF-kB can transcriptionally regulate iNOS gene expression (Guo et al., 2007). To examine the effects of 5-HT2A receptor activation on this component of inflammatory mechanisms, primary RASM cells were used to examine the ability of 1 nM (R)-DOI to block TNF-α mediated increases in nitrite levels.
As an indicator of NOS activity, nitrite levels were measured in the cell culture media after treatments and are shown in FIG. 6 as % control. […] Pretreatment with 1 nM (R)-DOI for 24 hours blocked TNF-α mediated increases in nitrite accumulation (DOI+T).

The test system of test [4] is ICAM-1 gene expression. The experiment in a line: TNF-α induced ICAM-1 gene expression in primary rat aortic smooth muscle cells. The format is cell-based. The following applies: for IC50: Rattus norvegicus. The protocol: RASM cells and treatment. Rat aortic smooth muscle (RASM) cells were isolated from adult 180 g male Sprague-Dawley rats and provided by the Cell and Molecular Core Facility in the Department of Pharmacology at LSUHSC-NO. Isolated RASM cells were grown in M-199 media containing 10% fetal bovine serum (Gibco), 100 units/mL penicillin, and 100 µg/mL streptomycin, and incubated at 37° C. in 5% CO2. Cells for all assays were used between passages 3 and 5. Prior to treatments, cells were grown in M-199 media with 10% fetal bovine serum (FBS) until 30-50% confluent. For most assays, cells were treated with (R)-DOI, or other drugs as indicated, at specific concentrations for 24 hours, followed by TNF-α (10 ng/ml) and (R)-DOI at the same pretreatment concentrations in fresh M-199 media. After another 24 hours, the cells were scraped, pelleted, and processed for RNA.
RNA isolation and Quantitative Realtime-PCR. RNA was extracted from cells using Illustra RNAspin Mini kits from GE Healthcare Life Sciences (Piscataway, N.J.) following protocols supplied by the manufacturer. First strand cDNA was generated using the ImProm-II cDNA synthesis kit (Promega) following the manufacturers protocols. Q-RT-PCR was performed using the ProbeLibrary system from Roche (Indianapolis, Ind.) in combination with the HotStart-IT probe qpcr master mix from USB Biological (Cleveland, Ohio) following manufactures protocols.
Primers were synthesized by IDT (Coralville, Iowa). ProbeLibrary probes from Roche were: U3, U74, U13, U106, U79 for 5-HT2AR, ICAM-1, VCAM-1, IL-6, and cyclophillin B, respectively. Quantitative determination of gene expression levels using a 2-step cycling protocol was performed on a MyIQ-5 Cycler (Bio-Rad, Hercules Calif.). Relative gene expression levels were calculated using the 2^[−ΔΔC(T)] method. Levels of all targets from the test samples were normalized to rat cyclophillin B expression.
To examine the effects of 5-HT2A receptor activation on TNF-α mediated proinflammatory gene expression, RASM cells were pretreated with (R)-DOI, a selective 5-HT2 receptor agonist, as described above. Dose-response curves were determined for the effects on ICAM-1, VCAM-1, and IL-6 gene expression for twelve different concentrations of (R)-DOI ranging from 0.1 pM to 100 nM, with each experiment repeated in triplicate. In FIGS. 1A-1C, the Y-axis represents a percent of TNF-α for the dose of (R)-DOI indicated on the X-axis.

In test [5] the test system is ICAM-1 gene expression. In words: LPS stimulated ICAM-1 gene expression in primary rat aortic smooth muscle cells. The format is cell-based. Particulars: 60 minute pretreatment, 100 nM. The protocol:
All treatments with 5-HT2A receptor agonists occurred 1 hour prior to the addition of TNF-alpha (10 ng/ml) or LPS (100 ng or […]) depending on the experiment. All RNA isolations, cDNA synthesis, QPCR gene expression assays examining ICAM1, VCAM1, and IL6, and data analysis were performed as described above in Example 1, except the primers were different for the human cell experiment. The human gene PCR primer sequences and universal probe numbers were as follows: cyclophillin (control amplicon; Probe U64): forward primer, 5′-[…]-3′ (SEQ ID NO: 11), reverse primer, 5′-[…]-3′ (SEQ ID NO: 12); and human ICAM-1 (Probe U71, intracellular adhesion molecule 1): forward primer, 5′-[…]-3′ (SEQ ID NO: 13), reverse primer, 5′-[…]-3′ (SEQ ID NO: 14).
The effect of (R)-DOI (60 minute pretreatment) on the expression of ICAM-1 in primary rat aortic smooth muscle cells after stimulation with LPS was examined. […] At a higher dose of LPS (1 μg), there was no effect of (R)-DOI on the increase in ICAM-1.

Where two headings read alike, the source gives them in different places.

One may read the IC50 as the concentration needed to halve the response being measured. With `COc1cc(C[C@@H](C)N)c(OC)cc1I` [(R)-DOI, (R)-1-(2,5-dimethoxy-4-iodophenyl)-2-aminopropane], in the test on VCAM-1 gene expression [1], the “effect on TNF-alpha induced increase in VCAM-1 gene expression in aortic endothelial cells” value is given as “less potent”. Besides, the “effect on VCAM-1 gene expression in rat bronchoaveolar macrophage cells” value in the test on VCAM-1 gene expression [2] is “potently blocked”. Further, the IC50 is ~0.02 nM with VCAM-1 gene expression [2] (Rattus norvegicus, Macrophage, 1 hour prior to TNF-α 10 ng/ml, read-out: IC50 for VCAM-1 gene expression inhibition in rat bronchoaveolar macrophage cells); 0.0195 nM with ICAM-1 gene expression [4] (RASM passage 4, media with FBS, 24 h pretreatment, TNF-α 10 ng/ml, read-out: IC50 for proinflammatory gene expression inhibition for ICAM-1); 0.36 nM in the test with ICAM-1 gene expression [4] (RASM passage 4, serum starved for 8 hours, read-out: IC50 for ICAM-1 gene expression inhibition in serum-free media). Besides, in test [3], the “effect on TNF-α mediated increases in nitrite accumulation” value was “blocked”. The “block of TNF-α induced ICAM1 gene expression at 1 nM” value with ICAM-1 gene expression [4] (1 nM pretreatment, VCAM1 and IL6 identical) was “blocked gene expression”. The “block of TNF-α effect on ICAM-1 expression with 24 hour and one hour pretreatments and simultaneous treatment” value with ICAM-1 gene expression [4] (1 nM, TNF-α 10 ng/ml) is “completely blocked”. Further, the “effect on ICAM-1 induction by low dose of LPS” value in the test with ICAM-1 gene expression [5] (LPS 100 ng) is “able to block the response”. The “effect on ICAM-1 increase by higher dose of LPS” value in the test with ICAM-1 gene expression [5] (LPS 1 μg) is given as “no effect”.
